# Results from EP0255028A2 (priority 1986, dated 1988).
# Read-outs that look alike come from different tables or passages of the source.
# Columns and labels:
# [1] = tested on: durch PAF induzierte Aggregation von Humanthrambozyten; test: Inhibition of PAF-induced platelet aggregation in vitro (Born and Cross method); format: cell-based; settings: Homo sapiens
# Text: 1. In vitro Untersuchun^qen: Hemmung der Blutplättchen-Aqqreqation
# Zur Bestimmung der PAF-antagonistischen Wirkung von Substanzen wurde die durch PAF induzierte Aggregation von Humanthrambozyten in vitro verwendet. Zur Gewinnung von thrombozytenreichem Plasma (TRP) erfolgt die Blutentnahme aus einer nicht gestauten Vene mit Hilfe einer Plastikspritze, in der sich 3,8 %ige Natriumcitratlösung befindet. Das Verhältnis zwischen Natriumcitratlösung und Blut beträgt 1:9. Nach vorsichtiger Durchmischung wird das Citratblut bei 150 x g (1200 U/min) 20 Minuten lang zentrifugiert. Die Messung der Thrombozytenaggregation erfolgt nach dem von Born und Cross ausgearbeiteten Verfahren (G. V. R. Born und M.J. Cross, J. Physiol. 168, 178 (1963)), wobei dem TRP unter ständigem Rühren PAF als Auslöser der Aggregation zugesetzt wird.
# Die Prüfsubstanz wird jeweils 2 - 3 Minuten vor Auslösung der Aggregation in einem Volumen von 10 µl zugesetzt. Als Lösungsmittel dienen entweder Aqua.dest., Ethanol und/oder Dimethylsulgoxyd. Kontrollansätze erhalten entsprechende Volumina dieser Lösungsmittel. Nach Registrierung der Ausgangsabsorption (2-3 Minuten) wird die Aggregation mit PAF (5 x 10^-8M) induziert.
# Zur Beurteilung von Substanzeffekten wird das Maximum der ersten Aggregationswelle verwendet. Die durch PAF induzierte maximale Absorptionsrate maximale Aggregation x 100 %) wird jeweils gleichzeitig in einem Parallelansatz (= Kontrollansatz in einem der Kanäle des 2 Kanal-Aggregometers) zu jedem Testansatz (zweiter Kanal) mitgeprüft und als 100 %-Wert verwendet.
# Der unter dem Einfluß der Testsubstanz erreichte Aggregationswert wird als 100 % angegeben.
# Jede Prüfsubstanz wird bei Konzentrationen von 10^-3 bis 10^-8M mit einem Stichprobenumfang von jeweils n= 4 hinsichtlich einer hemmenden Wirkung auf die durch PAF induzierte Thrombozytenaggregation untersucht. Danach wird eine Konzentrations-Wirkungskurve anhand von 3 Konzentrationen erstellt und die IK50 (Konzentration bei einer 50%igen Aggregationsheinmung) ermittelt. Die IK-Werte von Verbindungen der allgemeinen Formel I bewegen sich im allgemeinen um Werte, die kleiner als 9 µM sind.
# [2] = target: Flunitrazopam-Bindungstest; test: Flunitrazepam binding test (FNB); settings: read-out: IK50-Wert FNB
# [3] = read-out: IK50 (Konzentration bei einer 50%igen Aggregationshemmung)
smiles,measurement,setting,value
"Cc1cnc2n1-c1ccc(OCc3cccnc3)cc1C(c1ccccc1)=NC2 (atropisomer, axis not shown) [(m)]",IC50,[1]; read-out: IK50-Wert PAF,100 nM
"CCOC(=O)CCCOc1ccc2c(c1)C(c1ccccc1Cl)=NCc1nnc(C)n1-2 [(a), 8-(3-Ethoxycarbonyl-propyloxy)-1-Methyl-6-(2-chlorphenyl)-4H-(1,2,4]triazolo(4,3-a][1,4]benzodiazepin]",IC50,[1]; read-out: IK50-Wert PAF,1300 nM
same,IC50,[2],570 nM
Cc1nnc2n1-c1ccc(OCC(=O)NCC(C)C)cc1C(c1ccccc1Cl)=NC2 [(b)],IC50,[1]; read-out: IK50-Wert PAF,400 nM
same,IC50,[2],40 nM
Cc1nnc2n1-c1ccc(OCC(=O)NC3CCN(C)CC3)cc1C(c1ccccc1Cl)=NC2 [(c)],IC50,[1]; read-out: IK50-Wert PAF,800 nM
same,IC50,[2],2160 nM
Cc1nnc2n1-c1ccc(OCCN3CCOCC3)cc1C(c1ccccc1Cl)=NC2 [(d)],IC50,[1]; read-out: IK50-Wert PAF,300 nM
same,IC50,[2],2680 nM
Cc1nnc2n1-c1ccc(OCCN3C(=O)c4ccccc4C3=O)cc1C(c1ccccc1Cl)=NC2 [(e)],IC50,[1]; read-out: IK50-Wert PAF,300 nM
Cc1nnc2n1-c1ccc(C3=NC(C)(C)CO3)cc1C(c1ccccc1Cl)=NC2 [(f)],IC50,[1]; read-out: IK50-Wert PAF,400 nM
same,IC50,[2],800 nM
Cc1nnc2n1-c1ccc(C(=O)NCCN3CCOCC3)cc1C(c1ccccc1Cl)=NC2 [(g)],IC50,[1]; read-out: IK50-Wert PAF,900 nM
same,IC50,[2],> 5000 nM
Cc1nnc2n1-c1ccc(C(=O)OCCCN(C)C)cc1C(c1ccccc1Cl)=NC2 [(h)],IC50,[1]; read-out: IK50-Wert PAF,1200 nM
Cc1nnc2n1-c1ccc(OCCN3CCOCC3)cc1C(c1ccccc1Cl)NC2 (centres unmarked) [(i)],IC50,[1]; read-out: IK50-Wert PAF,400 nM
same,IC50,[2],4550 nM
Cc1nnc2n1-c1ccc(OCCCN3CCOCC3)cc1C(c1ccccc1)=NC2 [(j)],IC50,[1]; read-out: IK50-Wert PAF,100 nM
same,IC50,[2],> 5000 nM
Cc1nnc2n1-c1ccc(OCc3cccnc3)cc1C(c1ccccc1)=NC2 [(k)],IC50,[1]; read-out: IK50-Wert PAF,200 nM
same,IC50,[2],1420 nM
Cc1cnc2n1-c1ccc(OCCCN3CCOCC3)cc1C(c1ccccc1)=NC2 [(l)],IC50,[1]; read-out: IK50-Wert PAF,100 nM
same,IC50,[2],> 5000 nM
"Cc1nnc2n1-c1ccc(Cl)cc1C(c1ccccc1)=NC2 [Alprazolam, reference compound]",IC50,[1]; [3],14000 nM
same,IC50,[1]; read-out: IK50-Wert PAF,14000 nM
same,IC50,[2],5.5 nM
"Cc1nnc2n1-c1ccc(Cl)cc1C(c1ccccc1Cl)=NC2 [Triazolam, reference compound]",IC50,[1]; [3],9000 nM
same,IC50,[1]; read-out: IK50-Wert PAF,9000 nM
same,IC50,[2],1.4 nM
